Experimental data as given in the NIST ThermoML archive (doi:10.1021/je800981d).
“And” between values parts separate entries of the source, which are not always exact repeats. Equal values may be shown once.

Experiments:
[1] = refractive index (Na D-line) (dimensionless); settings: 101.33 kPa, Liquid, Standard Abbe refractometry
[2] = Liquid
[3] = refractive index (Na D-line) (dimensionless); xn = mol fraction of the nth substance listed; settings: 298.15 K, 101 kPa, Liquid, Standard Abbe refractometry
[4] = xn = mol fraction of the nth substance listed; settings: 101 kPa, Liquid

CCO [ethanol]
Settings | refractive index
[1], 298.15 K | 1.36023

[2], 101 kPa
Settings | mass density [kg/m3] | speed of sound [m/s] | viscosity [mPa·s]
298.15 K | 785.5 | 1146 | 1.082
313.15 K | 772 | 1093 | 0.827
328.15 K | 758.6 | 1043 | 0.641

CCCO [propan-1-ol] + CCOS(=O)(=O)[O-].CC[n+]1ccccc1
Settings | refractive index
[3], x1 = 1 | 1.3831

[4], x1 = 1
Settings | mass density [kg/m3] | speed of sound [m/s] | viscosity [mPa·s]
298.15 K | 799.6 | 1207 | 2.017
313.15 K | 787.4 | 1155 | 1.43
328.15 K | 774.8 | 1105 | 1.041

CCCO [propan-1-ol]
Settings | refractive index
[1], 298.15 K | 1.3831

[2], 101 kPa
Settings | mass density [kg/m3] | speed of sound [m/s] | viscosity [mPa·s]
298.15 K | 799.6 | 1207 | 2.017
313.15 K | 787.4 | 1155 | 1.43
328.15 K | 774.8 | 1105 | 1.041

CCOS(=O)(=O)[O-].CC[n+]1ccccc1 [1-ethylpyridinium ethyl sulfate] + CCO
[3]
Settings | refractive index
x2 = 0 | 1.50252
x2 = 0.0476 | 1.50313
x2 = 0.1993 | 1.49585
x2 = 0.2992 | 1.48987
x2 = 0.5009 | 1.47321
x2 = 0.6033 | 1.46152
x2 = 0.7023 | 1.44693
x2 = 0.8016 | 1.42734
x2 = 0.899 | 1.40078
x2 = 0.9476 | 1.38342

[4]
Settings | mass density, 298.15 K [kg/m3] | mass density, 313.15 K [kg/m3] | mass density, 328.15 K [kg/m3] | speed of sound, 298.15 K [m/s] | speed of sound, 313.15 K [m/s] | speed of sound, 328.15 K [m/s] | viscosity, 298.15 K [mPa·s] | viscosity, 313.15 K [mPa·s] | viscosity, 328.15 K [mPa·s]
x2 = 0 | 1252 | 1242.1 | 1232.3 | 1711 | 1676 | 1641 | 126.3 | 57.6 | 38.6
x2 = 0.0476 | 1245.3 | 1235.3 | 1225.3 | 1700 | 1665 | 1631 | 103.3 | 50.3 | 34.14
x2 = 0.1993 | 1220.8 | 1210.8 | 1200.7 | 1661 | 1625 | 1591 | 58.4 | 33.9 | 22.38
x2 = 0.2992 | 1201.2 | 1190.9 | 1180.7 | 1630 | 1593 | 1558 | 40.3 | 23.51 | 15.2
x2 = 0.5009 | 1147.2 | 1136.4 | 1125.9 | 1546 | 1508 | 1472 | 17.27 | 11.39 | 8.015
x2 = 0.6033 | 1109.2 | 1098.4 | 1087.7 | 1491 | 1453 | 1388 | 10.79 | 7.07 | 5.198
x2 = 0.7023 | 1062 | 1051 | 1039.9 | 1428 | 1388 | 1350 | 6.63 | 4.8 | 3.642
x2 = 0.8016 | 999.9 | 988.1 | 976.6 | 1349 | 1308 | 1267 | 3.947 | 2.943 | 2.287
x2 = 0.899 | 915.5 | 903.3 | 890.1 | 1258 | 1214 | 1170 | 2.244 | 1.717 | 1.344
x2 = 0.9476 | 860.1 | 847.5 | 834.1 | 1206 | 1160 | 1113 | 1.641 | 1.261 | 0.987

CCO [ethanol] + CCOS(=O)(=O)[O-].CC[n+]1ccccc1
Settings | refractive index
[3], x1 = 1 | 1.36023

[4], x1 = 1
Settings | mass density [kg/m3] | speed of sound [m/s] | viscosity [mPa·s]
298.15 K | 785.5 | 1146 | 1.082
313.15 K | 772 | 1093 | 0.827
328.15 K | 758.6 | 1043 | 0.641

CCOS(=O)(=O)[O-].CC[n+]1ccccc1 [1-ethylpyridinium ethyl sulfate]
[1]
Settings | refractive index
298.15 K | 1.50525 and 1.50252
303.15 K | 1.50394
308.15 K | 1.50258
313.15 K | 1.5012
318.15 K | 1.49976
323.15 K | 1.4985
328.15 K | 1.4972
333.15 K | 1.49587
338.15 K | 1.49454
343.15 K | 1.49309

[2]
Settings | mass density, 101.33 kPa [kg/m3] | speed of sound, 101.33 kPa [m/s] | viscosity, 101 kPa [mPa·s] | viscosity, 101.33 kPa [mPa·s]
298.15 K | 1252 | 1711 | – | 126.3
303.15 K | 1248.7 | 1699 | – | 93
308.15 K | 1245.4 | 1687 | – | 72.1
313.15 K | 1242.1 | 1676 | – | 57.6
318.15 K | 1238.8 | 1664 | – | 46.4
323.15 K | 1235.6 | 1653 | – | 38.6
328.15 K | 1232.3 | 1641 | 38.6 | 32.53
333.15 K | 1229.1 | 1630 | – | 27.78
338.15 K | 1225.9 | 1619 | – | 23.9
343.15 K | 1222.7 | 1608 | – | 20.71

CCOS(=O)(=O)[O-].CC[n+]1ccccc1 [1-ethylpyridinium ethyl sulfate] + CCCO
[3]
Settings | refractive index
x2 = 0 | 1.50525
x2 = 0.0814 | 1.50137
x2 = 0.1994 | 1.49499
x2 = 0.3084 | 1.48804
x2 = 0.4035 | 1.48081
x2 = 0.5077 | 1.47142
x2 = 0.6013 | 1.46126
x2 = 0.7016 | 1.44802
x2 = 0.8004 | 1.43181
x2 = 0.9002 | 1.411
x2 = 0.9521 | 1.39773

[4]
Settings | mass density, 298.15 K [kg/m3] | mass density, 313.15 K [kg/m3] | mass density, 328.15 K [kg/m3] | speed of sound, 298.15 K [m/s] | speed of sound, 313.15 K [m/s] | speed of sound, 328.15 K [m/s] | viscosity, 298.15 K [mPa·s] | viscosity, 313.15 K [mPa·s] | viscosity, 328.15 K [mPa·s]
x2 = 0 | 1252 | 1242.1 | 1232.3 | 1711 | 1676 | 1641 | 126.3 | 57.6 | 38.6
x2 = 0.0814 | 1237.2 | 1227.4 | 1217.6 | 1689 | 1654 | 1619 | 95.2 | 48 | 32.49
x2 = 0.1994 | 1212.7 | 1202.7 | 1192.7 | 1649 | 1613 | 1578 | 62.7 | 34.23 | 23.31
x2 = 0.3084 | 1186.1 | 1176.1 | 1165.9 | 1608 | 1572 | 1537 | 43.6 | 25.21 | 17.27
x2 = 0.4035 | 1159 | 1148.5 | 1138.3 | 1565 | 1528 | 1493 | 30.03 | 18.31 | 12.21
x2 = 0.5077 | 1123.8 | 1113 | 1102.6 | 1516 | 1478 | 1440 | 20.12 | 12.91 | 8.898
x2 = 0.6013 | 1085.8 | 1074.8 | 1064.2 | 1466 | 1427 | 1388 | 13.68 | 9.161 | 6.523
x2 = 0.7016 | 1036.7 | 1025.2 | 1014.3 | 1409 | 1367 | 1327 | 8.84 | 6.131 | 4.494
x2 = 0.8004 | 976.9 | 965.3 | 954.1 | 1347 | 1304 | 1262 | 5.597 | 3.988 | 2.977
x2 = 0.9002 | 900.6 | 888.9 | 877.1 | 1279 | 1234 | 1189 | 3.483 | 2.507 | 1.874
x2 = 0.9521 | 852.4 | 840.3 | 828.1 | 1244 | 1195 | 1147 | 2.676 | 1.921 | 1.411
